Measured values published in patent publication US20260144788A1, “COMPOUND FOR SHP2 PROTEIN DEGRADATION AND MEDICAL USES THEREOF” (UBIX THERAPEUTICS, INC., priority 2022, published 2026).

Target: T1, SHP2 protein (Homo sapiens, UniProt Q06124)
T1 sequence (Q06124 1-593): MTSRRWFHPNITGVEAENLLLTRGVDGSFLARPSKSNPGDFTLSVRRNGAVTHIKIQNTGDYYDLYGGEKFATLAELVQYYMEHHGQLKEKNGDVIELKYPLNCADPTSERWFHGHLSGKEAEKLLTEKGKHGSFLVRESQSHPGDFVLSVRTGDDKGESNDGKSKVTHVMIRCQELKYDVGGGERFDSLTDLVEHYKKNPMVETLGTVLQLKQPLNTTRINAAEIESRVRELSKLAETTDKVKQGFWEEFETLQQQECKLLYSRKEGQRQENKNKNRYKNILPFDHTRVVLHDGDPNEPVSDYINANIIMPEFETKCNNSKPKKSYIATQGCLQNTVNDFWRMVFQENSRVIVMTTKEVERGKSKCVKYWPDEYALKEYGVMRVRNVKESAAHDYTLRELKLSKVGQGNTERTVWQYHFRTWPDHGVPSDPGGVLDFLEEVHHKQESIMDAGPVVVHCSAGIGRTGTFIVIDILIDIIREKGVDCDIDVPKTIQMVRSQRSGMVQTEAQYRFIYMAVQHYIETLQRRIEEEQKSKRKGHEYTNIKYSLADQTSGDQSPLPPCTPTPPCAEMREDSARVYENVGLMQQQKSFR
Assay: Measurement of SHP2 protein degradation in MV-4-11 cells (western blotting)
Assay type: cell-based
Design: endogenous in cells
Conditions: harvested after 24 hours
Experimental: MV-4-11 cells were treated with the synthesized Example compounds, and the amount of SHP2 protein present in the cells was measured using western blotting detection. The protocol for the experiment conducted using MV-4-11 cells is as follows.
[Culture] MV-4-11 cells were resuspended in IMDM MEDIUM (Hyclone, SH30228.01), 5% FBS (Hyclone, SV30207.02), 1% Penicillin-streptomycin (Welgene, LS 202-02) media and seeded at 1×10^6/mL in 12-well plates (1 mL each).
[Compound treatment]12-well plates were treated as follows. 10 mM stock dissolved in DMSO was serially diluted 1/100 or 1/10 with media, and the compounds were treated to the cells at a final concentration of 0.01, 0.1, 1 μM or 0.001, 0.01, 0.1 μM, and harvested after 24 hours. For the negative control group, DMSO diluted 1/100 or 1/1000 in media was added (3 μL DMSO+297 μL media or 1 μL DMSO+999 μL media).
[Harvest] Each well was pipetted with a 1 mL pipette, collected in a 1.5 mL microtube, and centrifuged (500 g, 5 min, 4° C.). The supernatant was removed, washed with PBS, and centrifuged again (500 g, 5 min, 4° C.). The supernatant was removed and a pellet was prepared.
[Cell lysis and sample preparation] Lysis buffer was prepared as follows. RIPA buffer (Biosesang, RC2038-050-00)+0.5 mM PMSF (SIGMA, P7626)+1× Protease/Phosphatase Inhibitor (Cell signaling, 5872S) were added at 50 μL per tube and incubated on ice for 30 minutes (vortexed at 0 and 30 minutes). After sonication (10 sec pulse, 30 sec rest, 5 cycles, 70% amplification) and centrifugation (15,000 g, 15 min, 4° C.), only the supernatant was transferred to a microtube. RIPA buffer 7.5 μL and sample 2.5 μL were added to a 96-well plate to dilute to 1/4, and then BCA Protein Assay Kit (iNtRON, 21071) A and B were mixed in a 50:1 ratio and 200 μL each was added. After that, the plate was incubated at 37° C. for 30 minutes and left at room temperature for 10 minutes. After shaking for 10 seconds with a SYNERGY H1 microplate reader from BioTek, the absorbance was measured at 562 nm. The protein was quantified using the measured value to prepare a sample, which was then incubated at 70° C. for 10 minutes. The sample buffer used at this time is a mixture of NuPAGE or Bolt 4× sample buffer (Invitrogen) and each 10× sample reducing agent according to the gel to be used, and RIPA buffer was used for protein dilution.
[Western blotting detection] Equal amounts of samples were loaded onto NuPAGE or Bolt Bis-tris 4-12% gradient gels and run (200 V, 35 min). This was transferred to […] NC membranes using Trans-blot Turbo (BIO-RAD) (1.3 A constant, 25 V limit, 15 min), and was blocked at room temperature for 1 hour with Skim milk or Intercept Blocking Buffer (LI-COR, 927-60001):0.1% TBST=1:1. Anti-SHPTP2 Mouse (1:500 in 2% BSA/0.2% TBST, size: 70 kDa, Santacruz sc-7384) was incubated overnight at 4° C., and Anti-GAPDH Rabbit (1:2,000 in 2% BSA/0.2% TBST, size: 37 kDa, CST #2118) was incubated at room temperature for 1.5 hours or 3 hours. After washing three times for 5 minutes each with 0.2% TBST washing buffer, secondary antibodies Anti-Mouse IgG (1:5,000 in 2% BSA/0.2% TBST, CST) and IRDye® 680RD Goat anti-Rabbit IgG Secondary Antibody (1:10,000 in 2% BSA/0.2% TBST, LI-COR 926-68071) were added, and incubated on a rocker at room temperature for 45 minutes. The resultants were washed five times for 5 minutes each with 0.2% TBST washing buffer, and detected using LI-COR's Odyssey. GAPDH was detected with a 700 nm channel, and SHPTP2 was detected using SuperSignal West Pico PLUS Chemiluminescent Substrate.

Question: `Cc1ncsc1-c1ccc(CNC(=O)[C@@H]2C[C@@H](O)CN2C(=O)[C@@H](NC(=O)C2(F)CC2)C(C)(C)C)c(O[C@H]2CC[C@H](C(=O)N3CCC(Nc4cccc(Sc5cnc(N6CCC(C)(CN)CC6)cn5)c4Cl)CC3)CC2)c1` [Example 17, (2S,4R)—N-(2-(((1R,4S)-4-(4-((3-((5-(4-(aminomethyl)-4-methylpiperidin-1-yl)pyrazin-2-yl)thio)-2-chlorophenyl)amino)piperidine-1-carbonyl)cyclohexyl)oxy)-4-(4-methylthiazol-5-yl)benzyl)-1-((S)-2-(1-fluorocyclopropane-1-carboxamido)-3,3-dimethylbutanoyl)-4-hydroxypyrrolidine-2-carboxamide] was tested. Which SHP2% degradation (0.01 μM) did it give?
Answer: Its SHP2% degradation is 64.4%.

Question: What about the SHP2% degradation (0.1 μM) of the same compound?
Answer: The SHP2% degradation was 96.6%.

Question: Which SHP2% degradation (0.01 μM) does the source give for `Cc1ncsc1-c1ccc(CNC(=O)[C@@H]2C[C@@H](O)CN2C(=O)[C@@H](NC(=O)C2(F)CC2)C(C)(C)C)c(O[C@H]2CC[C@H](C(=O)N3CC(CNc4cccc(Sc5cnc(N6CCC(C)(CN)CC6)cn5)c4Cl)C3)CC2)c1` [Example 18, (2S,4R)—N-(2-(((1R,4S)-4-(3-(((3-((5-(4-(aminomethyl)-4-methylpiperidin-1-yl)pyrazin-2-yl)thio)-2-chlorophenyl)amino)methyl)azetidine-1-carbonyl)cyclohexyl)oxy)-4-(4-methylthiazol-5-yl)benzyl)-1-((S)-2-(1-fluorocyclopropane-1-carboxamido)-3,3-dimethylbutanoyl)-4-hydroxypyrrolidine-2-carboxamide] here?
Answer: Its SHP2% degradation is 63.2%.

Question: And the SHP2% degradation (0.1 μM)?
Answer: The SHP2% degradation was 98.4%.

Question: What does the source list for `Cc1ncsc1-c1ccc(CNC(=O)[C@@H]2C[C@@H](O)CN2C(=O)[C@@H](NC(=O)C2(F)CC2)C(C)(C)C)c(O[C@H]2CC[C@H](C(=O)N3CCC(CNc4cccc(Sc5cnc(N6CCC(C)(CN)CC6)cn5)c4Cl)CC3)CC2)c1` [Example 19, (2S,4R)—N-(2-(((1R,4S)-4-(4-(((3-((5-(4-(aminomethyl)-4-methylpiperidin-1-yl)pyrazin-2-yl)thio)-2-chlorophenyl)amino)methyl)piperidine-1-carbonyl)cyclohexyl)oxy)-4-(4-methylthiazol-5-yl)benzyl)-1-((S)-2-(1-fluorocyclopropane-1-carboxamido)-3,3-dimethylbutanoyl)-4-hydroxypyrrolidine-2-carboxamide]?
Answer: SHP2% degradation (0.01 μM): 50.4%; SHP2% degradation (0.1 μM): 95.7%

Question: For `Cc1ncsc1-c1ccc(CNC(=O)[C@@H]2C[C@@H](O)CN2C(=O)[C@@H](NC(=O)C2(F)CC2)C(C)(C)C)c(O[C@H]2CC[C@H](C(=O)N3CC(Nc4nccc(Sc5cnc(N6CCC(C)(CN)CC6)cn5)c4Cl)C3)CC2)c1` [Example 20, (2S,4R)—N-(2-(((1R,4S)-4-(3-((4-((5-(4-(aminomethyl)-4-methylpiperidin-1-yl)pyrazin-2-yl)thio)-3-chloropyridin-2-yl)amino)azetidine-1-carbonyl)cyclohexyl)oxy)-4-(4-methylthiazol-5-yl)benzyl)-1-((S)-2-(1-fluorocyclopropane-1-carboxamido)-3,3-dimethylbutanoyl)-4-hydroxypyrrolidine-2-carboxamide], which SHP2% degradation (0.01 μM) is on record?
Answer: Its SHP2% degradation is 78.8%.

Question: What about the SHP2% degradation (0.1 μM) of the same compound?
Answer: Its SHP2% degradation is 98.2%.

Question: Which SHP2% degradation (0.01 μM) does the source give for `Cc1ncsc1-c1ccc(CNC(=O)[C@@H]2C[C@@H](O)CN2C(=O)[C@@H](NC(=O)C2(F)CC2)C(C)(C)C)c(O[C@H]2CC[C@H](C(=O)N3CC(Nc4nccc(Sc5cnc(N6CCC(C)(N)CC6)cn5)c4Cl)C3)CC2)c1` [Example 21, (2S,4R)—N-(2-(((1R,4S)-4-(3-((4-((5-(4-amino-4-methylpiperidin-1-yl)pyrazin-2-yl)thio)-3-chloropyridin-2-yl)amino)azetidine-1-carbonyl)cyclohexyl)oxy)-4-(4-methylthiazol-5-yl)benzyl)-1-((S)-2-(1-fluorocyclopropane-1-carboxamido)-3,3-dimethylbutanoyl)-4-hydroxypyrrolidine-2-carboxamide] here?
Answer: Its SHP2% degradation is 81.1%.

Question: And the SHP2% degradation (0.1 μM)?
Answer: The SHP2% degradation was 99.7%.

Question: What does the source list for `Cc1ncsc1-c1ccc(CNC(=O)[C@@H]2C[C@@H](O)CN2C(=O)[C@@H](NC(=O)C2(F)CC2)C(C)(C)C)c(O[C@H]2CC[C@H](C(=O)N3CCC(Nc4nccc(Sc5cnc(N6CCC(C)(CN)CC6)cn5)c4Cl)CC3)CC2)c1` [Example 23, (2S,4R)—N-(2-(((1R,4S)-4-(4-((4-((5-(4-(aminomethyl)-4-methylpiperidin-1-yl)pyrazin-2-yl)thio)-3-chloropyridin-2-yl)amino)piperidine-1-carbonyl)cyclohexyl)oxy)-4-(4-methylthiazol-5-yl)benzyl)-1-((S)-2-(1-fluorocyclopropane-1-carboxamido)-3,3-dimethylbutanoyl)-4-hydroxypyrrolidine-2-carboxamide]?
Answer: SHP2% degradation (0.01 μM): 74.2%; SHP2% degradation (0.1 μM): 99.8%

Question: With `Cc1ncsc1-c1ccc(CNC(=O)[C@@H]2C[C@@H](O)CN2C(=O)[C@@H](NC(=O)C2(F)CC2)C(C)(C)C)c(O[C@H]2CC[C@H](C(=O)N3CCC(Nc4nccc(Sc5cnc(N6CCC(C)(N)CC6)cn5)c4Cl)CC3)CC2)c1` [Example 24, (2S,4R)—N-(2-(((1R,4S)-4-(4-((4-((5-(4-amino-4-methylpiperidin-1-yl)pyrazin-2-yl)thio)-3-chloropyridin-2-yl)amino)piperidine-1-carbonyl)cyclohexyl)oxy)-4-(4-methylthiazol-5-yl)benzyl)-1-((S)-2-(1-fluorocyclopropane-1-carboxamido)-3,3-dimethylbutanoyl)-4-hydroxypyrrolidine-2-carboxamide] as the compound, how does the SHP2% degradation (0.01 μM) read?
Answer: The SHP2% degradation was 83.1%.

Question: What about the SHP2% degradation (0.1 μM) of the same compound?
Answer: The SHP2% degradation was 100.0%.

Question: Which SHP2% degradation (0.01 μM) does the source give for `Cc1ncsc1-c1ccc(CNC(=O)[C@@H]2C[C@@H](O)CN2C(=O)[C@@H](NC(=O)C2(F)CC2)C(C)(C)C)c(O[C@H]2CC[C@H](C(=O)N3CCN(c4nccc(Sc5cnc(N6CCC(C)(CN)CC6)cn5)c4Cl)CC3)CC2)c1` [Example 26, (2S,4R)—N-(2-(((1R,4S)-4-(4-(4-((5-(4-(aminomethyl)-4-methylpiperidin-1-yl)pyrazin-2-yl)thio)-3-chloropyridin-2-yl)piperazine-1-carbonyl)cyclohexyl)oxy)-4-(4-methylthiazol-5-yl)benzyl)-1-((S)-2-(1-fluorocyclopropane-1-carboxamido)-3,3-dimethylbutanoyl)-4-hydroxypyrrolidine-2-carboxamide] here?
Answer: Its SHP2% degradation is 52.3%.

Question: What about the SHP2% degradation (0.1 μM) of the same compound?
Answer: The SHP2% degradation was 96.1%.
